The values that follow are results of earlier work, collected in patent US20220054538A1, “ANTI-HELICOBACTER AGENT AND METHOD FOR THE USE THEREOF” (priority 2018, published 2022).

The data set concerns Helicobacter pylori culture. The conditions noted are these: in vitro.

Consider calcium pectate, for which the “effect on Helicobacter pylori culture” value is “significant effect”.
